Assay results from patent publication US20250099491A1, “PREVENTION OR TREATMENT OF CARDIOVASCULAR DISEASES WITH HIGH PENETRATION PRODRUGS OF ASPIRIN AND OTHER NSAIDS” (Techfields Inc., priority 2022, published 2025).
Like-named read-outs stand apart in the source and are kept apart here.

Legend:
[1] = system: rats with acute ischemia induced by Middle Cerebral Artery Occlusion (MCAO); assay: Example 16: acute ischemia induced by MCAO in rats; format: in vivo, rat
[2] = system: myocardial infarction in minipigs; assay: Example 20: myocardial infarction efficacy study in minipigs (circumflex coronary artery thrombosis); format: in vivo, minipig; settings: aspirin 20 mg/kg/time oral, twice a day
Procedure: Total 24 male minipigs were used for this study. […] The minipigs were already quarantined and acclimated. Before animal being transferred from holding colony, a physical examination was performed and the acceptability of the animals for the study was evaluated by veterinary. […] [table] […] Under anesthesia, thoracotomy was carried out and the circumflex coronary artery of the heart was exposed. The circumflex coronary artery thrombosis was induced by photochemical reaction. […] Photoirradiation was continued for a 30 min. […] After cutting the femoral artery, thoracotomy was carried out and the heart was removed. […] TTC regent for 5 min. After staining with TTC reagent, the photograph of the heart 5 blocks was taken. All blocks were immersed in 10% formalin neutral buffer solution. The 2nd block appeared large necrotic area was cut sections (thickness: 7-8 μm). Slice was stained with H & E reagent. […] The infarct lesions were defined as a necrotic portion of TTC stained blocks. […] The histopathological alteration (necrosis, inflammation, granulation, etc.) of myocardial infarction was examined using H & E stained slides.

[3] = rabbit
[4] = system: rats with acute ischemia induced by Middle Cerebral Artery Occlusion (MCAO); assay: Example 14: acute ischemia induced by middle cerebral artery occlusion (MCAO) in rats; format: in vivo, rat
[5] = system: middle cerebral artery (MCA) thrombosis model of monkeys; assay: Example 19: middle cerebral artery (MCA) thrombosis model of monkeys; settings: aspirin 20 mg/kg/time oral, twice a day
Procedure: Aspirin was administered orally by gavage using a nasal catheter with a disposal syringe. The catheter was inserted into the stomach through the mouth. The treatment was once per day of MCA thrombosis (day 0), twice per day for 27 days.
The monkeys that had been fastened for at least 12 h were anesthetized with intramuscular administration of ketamine hydrochloride (20 mg/kg), and placed on an operation-bed. Anesthesia was continued with 1.0% isoflurane in O2 gas until 30 min. The inhalation anesthesia was performed with anesthesia machines (SN23402, Hallowell engineering and manufacturing corporation, USA) and respirators (SN23402, Hallowell engineering and manufacturing corporation, USA), and placed on an operation-bed. During anesthesia, body temperature of the animals (rectal temperature) was controlled between 37.0±0.5° C. by heating mattresses (XMTA-7000, Delixi Electric., Ltd.).
Under anesthesia, the left eye was enucleated using a bipolar coagulation device (Valleylab Force 1C, USA). A craniotomy was then performed supralaterally to the left side of the optic nerve. The next day animals were anesthetized with ketamine hydrochloride (20 mg/kg) and the dura and subarachnoid membrane were opened. MCA thrombosis was induced by photochemical reaction. The proximal part of the main MCA trunk. was irradiated with green light wave length 532 nm achieved by use of a xenon lamp (GL532T3-100FC, Shanghai Laser& Optics Century Col., Ltd.). The irradiation was directed by a 3-mm diameteroptic fiber mounted on a micromanipulator. Irradiation was started and rose bengal 20 mg/kg was injected intravenously. Photoirradiation was continued for a 30 min. The dura was then covered with a moist gelatin sponge.
Neurological deficits (see Table 3) were assessed 1, 3, 5, 7, 14 and 28 days after the onset of MCA thrombosis (day 0) in a blind manner. The neurological deficits was scored on consciousness, sensory system, motor system and skeletal muscle coordination, and the total neurological deficit score was calculated by summing the scores of consciousness, sensory system, motor system and skeletal muscle coordination.
The survival monkeys were deeply anesthetized with pentobarbital sodium (35 mg/kg, i.v.) 28 days after the onset of MCA thrombosis. After cutting the atriums of heart, 200 mL of heparinized physiological saline (10 U/mL) was allowed to perfuse the brain via the common carotid arteries, and followed by perfusion of 200 mL of 10% formalin neutral buffer solution. The whole brain was removed, and then was put in pathology sample preservation packs containing 10% formalin neutral buffer solution. For each brain sample, the coronal sections (thickness: 7-8 μm) per site were prepared at 10 sites at 4-mm intervals. Slices per site were each stained with H & E reagent.
Measurement of cerebral infarct lesions was carried out in a blind manner. The infarct lesions in the ischemic side are defined as a necrotic portion compared with that in the contralateral side. The infarcted area of left cerebral hemisphere (A) in the cross-sections was traced and measured using a computerized image analysis system (image J).
When the infarct size of 2 serial section was made into D and D′, the infarcted volume using the thickness (4 mm) of a section is measured in the following formula:
Total infarcted volume is calculated by summing the infarcted volume of the 10 serial sections.

[6] = 60 mg/kg oral bid 14 days, Day 14 after MCAO, TTC staining, mean±SEM
[7] = comparators: oral 60 mg/kg bid, Edaravone 3 mg/kg i.v. q.d.

CC(=O)Oc1ccccc1C(=O)O [Compound-3, Aspirin]
infarct volume [1, 6]: 37.99%±1.985
reduction of infarct volumes [1, 7]: little reduction
degeneration of myocardium and myocardial necrosis (histopathology) [2]: moderate
infarct volume (myocardial) ([2]; 28 days after MCA thrombosis): 431 mm^3
The cumulative amount of test compounds ([3]; 1 h): 0.000 mg
The cumulative amount of test compounds ([3]; 2 h): 0.001 mg
The cumulative amount of test compounds ([3]; 4 h): 0.002 mg
The cumulative amount of test compounds ([3]; 8 h): 0.003 mg
infarct volume [4, 6]: 36.27%±2.123
reduction of infarct volumes [4, 7]: little reduction
infarct volume ([5]; Day 28 after MCA thrombosis): 1901 mm^3
Mortality rate [5]: 1/5
hemorrhage in the penumbra area [5]: showed hemorrhage
liquefaction in the infarct area (histopathology) [5]: moderate
neurological deficits ([5]; until 28 days after MCA thrombosis): tended to show slight recovery
